Assay results as given in patent US10807958B2, “1,4-bis(3-aminopropyl)piperazine derivative and its use” (INSERM (Institut National de la Sante et de la Recherche …, priority 2015, dated 2020).

System: Neuroblastoma SKNSH-SY5Y cells expressing the human Tau isoform 412
Assay: 1D gel electrophoresis / Western blot of Tau expression and phosphorylation in treated cells
Assay type: cell-based
Details: 10 μM, vs induced but non-treated condition, FIG. 1
Excerpt: Pan-Tau and phospho-dependent Tau antibodies included Tau-Nter (M19G, 1/10 000, Sergeant et al., 1999), Tau-Cter (1/10 000, Sergeant et al., 1999, Le Freche et al., 2012), Tau-1 (1/5000, Merck Millipore), S199P (directed against the phospho-serine 199, 1/4000, Sergeant et al., 1999), Tau-Phospho S396 (directed against the phosphor-serine 396, 1/10000, Lifetechnologies), Tau-Phospho 404 (1/10 000, Lifetechnologies), 422 (clone 2H9, a homemade monoclonal antibody developed against a phospho-peptide containing the phosphorylated serine 422 residue of Tau, numbering according to the longest human brain Tau-441 isoform), AT8 (1/1000, Thermo Scientific), AT270 (1/2000, Thermo Scientific), AT100 (1/1000, Thermo Scientific). Neuron specific enolase (1/10 000), β-actin (1/5000) and β-tubulin (1/10 000) were from Sigma-Aldrich.
Human neuroblastoma cell line SKNSH-SY5Y cells expressing the human Tau isoform 412 (with the exon 2 and 10 encoding sequences) (or SY5Y-Tau46) was as previously described in Bretteville et al., 2009.
Neuroblastoma SKNSH-SY5Y cells expressing the human Tau isoform 412 (with the exon 2 and 10 encoding sequences) were treated with 10 μM of the hydrochloride salt of N-[3-(4-{3-[Bis(2-methylpropyl)amino]propyl}piperazin-1-yl)propyl]-1,2,3,4-tetrahydroacridin-9-amine (Example 6, hereinafter named “Compound I⋅HCl”) which was diluted in the culture medium as described in Bretteville et al., 2009.
For the western-blot analysis of Tau proteins, SDS-PAGE was performed according to the manufacturer's instructions using Bis-Tris 4-12% gradient acrylamide gel (NuPage® Bis-Tris PreCast 12 wells, Life Technologies). The apparent molecular weights were calibrated using the molecular weight markers (Novex and Magic Marks, Life Technologies). Electrophoresis was performed under a continuous tension of 100V/per gel for 1 h. […]
The effect of the compound of Formula I on Tau phosphorylation was analyzed in vitro and in vivo. […]
Expression and total phosphorylation was assessed by 1D and 2D gel electrophoresis using phospho-dependent and pan-Tau antibodies (FIGS. 1 and 2). […]

Compound: CC(C)CN(CCCN1CCN(CCCNc2c3c(nc4ccccc24)CCCC3)CC1)CC(C)C [compound of Formula I, N-[3-(4-{3-[Bis(2-methylpropyl)amino]propyl}piperazin-1-yl)propyl]-1,2,3,4-tetrahydroacridin-9-amine]
- Tau phosphorylation at serine 199 (S199P antibody): reduced
- Tau phosphorylation at serine 396 (S396 antibody): reduced
- Tau expression (pan-Tau antibodies): No significant change
